In ChEMBL document CHEMBL1134311, “Nonsteroidal selective glucocorticoid modulators: the effect of C-5 alkyl substitution on the transcriptional activation/repression profile of 2,5-dihydro-10-methoxy-2,2,4-trimethyl-1H-[1]benzopyrano[3,4-f]quinolines” (J Med Chem, 2001):
pEC50, pKi: −log10 of the molar value.

Key:
Glucocorticoid receptor [1] = biological target: T1, Glucocorticoid receptor (Homo sapiens, UniProt P04150); experiment: Binding affinity towards glucocorticoid receptor (GR) by displacing [3H]dexamethasone
T1 sequence (P04150 whole entry): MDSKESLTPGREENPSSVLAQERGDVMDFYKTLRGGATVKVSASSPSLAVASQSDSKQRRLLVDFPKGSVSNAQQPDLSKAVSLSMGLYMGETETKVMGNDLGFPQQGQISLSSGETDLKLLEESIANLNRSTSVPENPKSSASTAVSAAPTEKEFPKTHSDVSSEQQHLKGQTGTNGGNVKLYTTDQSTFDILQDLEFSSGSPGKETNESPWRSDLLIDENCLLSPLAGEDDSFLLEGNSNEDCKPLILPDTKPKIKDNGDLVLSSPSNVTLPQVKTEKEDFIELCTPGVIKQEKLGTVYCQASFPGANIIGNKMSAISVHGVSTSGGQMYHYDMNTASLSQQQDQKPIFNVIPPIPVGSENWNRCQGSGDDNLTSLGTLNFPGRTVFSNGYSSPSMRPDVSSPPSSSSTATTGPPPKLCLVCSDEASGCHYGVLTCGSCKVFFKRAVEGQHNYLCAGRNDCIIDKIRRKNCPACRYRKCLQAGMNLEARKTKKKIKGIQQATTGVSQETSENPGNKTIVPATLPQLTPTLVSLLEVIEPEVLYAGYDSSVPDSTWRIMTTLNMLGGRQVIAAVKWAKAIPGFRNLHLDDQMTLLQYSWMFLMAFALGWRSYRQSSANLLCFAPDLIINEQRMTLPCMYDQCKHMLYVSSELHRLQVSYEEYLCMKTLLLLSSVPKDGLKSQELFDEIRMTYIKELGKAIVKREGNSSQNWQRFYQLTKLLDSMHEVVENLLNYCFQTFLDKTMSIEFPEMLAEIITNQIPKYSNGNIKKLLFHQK

Glucocorticoid receptor [2] = biological target: T1, Glucocorticoid receptor; experiment: Effective concentration in HepG2 cells transfected with LUC gene (E-sel-Luc).; assay type: functional, cell-based
Glucocorticoid receptor [3] = biological target: T1, Glucocorticoid receptor; experiment: The effective concentration in CV-1 cells for glucocorticoid response element activation (GRE).; assay type: functional, cell-based
Progesterone receptor = biological target: T2, Progesterone receptor (Homo sapiens, UniProt P06401); experiment: Binding affinity towards progesterone receptor (PR) by displacing [3H]progesterone.
T2 sequence (P06401 whole entry): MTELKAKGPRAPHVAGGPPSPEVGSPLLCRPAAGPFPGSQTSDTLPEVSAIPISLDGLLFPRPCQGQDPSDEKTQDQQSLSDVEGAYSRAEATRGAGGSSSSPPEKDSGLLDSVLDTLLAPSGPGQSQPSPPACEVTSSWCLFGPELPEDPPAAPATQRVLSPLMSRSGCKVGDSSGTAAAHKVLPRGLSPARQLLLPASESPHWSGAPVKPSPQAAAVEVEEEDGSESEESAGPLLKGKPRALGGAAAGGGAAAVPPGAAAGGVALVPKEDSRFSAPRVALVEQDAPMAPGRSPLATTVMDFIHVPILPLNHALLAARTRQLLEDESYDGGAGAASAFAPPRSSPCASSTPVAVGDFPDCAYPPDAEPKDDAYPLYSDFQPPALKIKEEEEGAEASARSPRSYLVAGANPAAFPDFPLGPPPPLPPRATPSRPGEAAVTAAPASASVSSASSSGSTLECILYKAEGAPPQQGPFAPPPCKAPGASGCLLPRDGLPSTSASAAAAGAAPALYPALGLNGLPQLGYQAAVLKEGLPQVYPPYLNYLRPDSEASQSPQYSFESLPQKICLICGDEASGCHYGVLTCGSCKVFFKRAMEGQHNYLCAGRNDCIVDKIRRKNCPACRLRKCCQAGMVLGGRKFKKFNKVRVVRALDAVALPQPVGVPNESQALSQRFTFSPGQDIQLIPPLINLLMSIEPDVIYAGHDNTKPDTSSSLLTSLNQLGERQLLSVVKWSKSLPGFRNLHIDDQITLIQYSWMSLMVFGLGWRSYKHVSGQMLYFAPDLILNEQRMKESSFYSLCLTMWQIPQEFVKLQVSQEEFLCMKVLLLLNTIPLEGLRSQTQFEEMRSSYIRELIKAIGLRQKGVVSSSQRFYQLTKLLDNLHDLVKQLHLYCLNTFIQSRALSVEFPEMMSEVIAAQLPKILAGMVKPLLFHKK

SMILES: C/C=C/C1Oc2cccc(OC)c2-c2ccc3c(c21)C(C)=CC(C)(C)N3 (centres undefined)
- pKi (Glucocorticoid receptor [1]): 8.05
- pEC50 (Glucocorticoid receptor [2]): 6.84
- pEC50 (Glucocorticoid receptor [3]): 6.40
- pKi (Progesterone receptor): 5.68

SMILES: COc1cccc2c1-c1ccc3c(c1C(CC(C)C)O2)C(C)=CC(C)(C)N3 (centres undefined)
- pKi (Glucocorticoid receptor [1]): 8.02
- pEC50 (Glucocorticoid receptor [2]): 7.16
- pEC50 (Glucocorticoid receptor [3]): 6.65
- pKi (Progesterone receptor): < 5.30

SMILES: C#CCC1Oc2cccc(OC)c2-c2ccc3c(c21)C(C)=CC(C)(C)N3 (centres undefined)
- pEC50 (Glucocorticoid receptor [2]): 7.57
- pEC50 (Glucocorticoid receptor [3]): 7.47
- pKi (Progesterone receptor): 6.12

SMILES: C/C=C\C1Oc2cccc(OC)c2-c2ccc3c(c21)C(C)=CC(C)(C)N3 (centres undefined)
- pEC50 (Glucocorticoid receptor [2]): 6.77
- pEC50 (Glucocorticoid receptor [3]): 6.34

SMILES: COc1cccc2c1-c1ccc3c(c1C(CC(=O)O)O2)C(C)=CC(C)(C)N3 (centres undefined)
- pKi (Glucocorticoid receptor [1]): < 5.30
- pEC50 (Glucocorticoid receptor [2]): < 5.30
- pEC50 (Glucocorticoid receptor [3]): < 5.30
- pKi (Progesterone receptor): < 5.30

SMILES: CNC(=O)CC1Oc2cccc(OC)c2-c2ccc3c(c21)C(C)=CC(C)(C)N3 (centres undefined)
- pKi (Glucocorticoid receptor [1]): 5.49
- pEC50 (Glucocorticoid receptor [2]): < 5.30
- pEC50 (Glucocorticoid receptor [3]): < 5.30
- pKi (Progesterone receptor): < 5.30

SMILES: COc1cccc2c1-c1ccc3c(c1C(CCO)O2)C(C)=CC(C)(C)N3 (centres undefined)
- pKi (Progesterone receptor): < 5.30

SMILES: COc1cccc2c1-c1ccc3c(c1CO2)C(C)=CC(C)(C)N3
- pEC50 (Glucocorticoid receptor [2]): < 5.30
- pEC50 (Glucocorticoid receptor [3]): < 5.30
- pKi (Progesterone receptor): < 5.30

SMILES: COc1cccc2c1-c1ccc3c(c1C(C(C)C)O2)C(C)=CC(C)(C)N3 (centres undefined)
- pEC50 (Glucocorticoid receptor [2]): 7.41
- pEC50 (Glucocorticoid receptor [3]): 6.84
- pKi (Progesterone receptor): < 5.30

SMILES: CCC1Oc2cccc(OC)c2-c2ccc3c(c21)C(C)=CC(C)(C)N3 (centres undefined)
- pEC50 (Glucocorticoid receptor [2]): 7.05
- pEC50 (Glucocorticoid receptor [3]): 6.58
- pKi (Progesterone receptor): < 5.30

SMILES: COc1cccc2c1-c1ccc3c(c1C(CC(=O)N(C)C)O2)C(C)=CC(C)(C)N3 (centres undefined)
- pEC50 (Glucocorticoid receptor [2]): < 5.30
- pEC50 (Glucocorticoid receptor [3]): < 5.30
- pKi (Progesterone receptor): < 5.30

SMILES: COc1cccc2c1-c1ccc3c(c1C(CCN(C)C)O2)C(C)=CC(C)(C)N3 (centres undefined)
- pKi (Progesterone receptor): < 5.30

SMILES: COc1cccc2c1-c1ccc3c(c1C(C1CCCCC1)O2)C(C)=CC(C)(C)N3 (centres undefined)
- pKi (Progesterone receptor): < 5.30

SMILES: C=CCCC1Oc2cccc(OC)c2-c2ccc3c(c21)C(C)=CC(C)(C)N3 (centres undefined)
- pKi (Glucocorticoid receptor [1]): 8.09
- pEC50 (Glucocorticoid receptor [2]): 7.66
- pEC50 (Glucocorticoid receptor [3]): 7.11
- pKi (Progesterone receptor): < 5.30

SMILES: CCCC1Oc2cccc(OC)c2-c2ccc3c(c21)C(C)=CC(C)(C)N3 (centres undefined)
- pKi (Glucocorticoid receptor [1]): 8.30
- pEC50 (Glucocorticoid receptor [2]): 7.15
- pEC50 (Glucocorticoid receptor [3]): 7.12
- pKi (Progesterone receptor): < 5.30

SMILES: COc1cccc2c1-c1ccc3c(c1C(C1CCCC1)O2)C(C)=CC(C)(C)N3 (centres undefined)
- pKi (Progesterone receptor): < 5.30

SMILES: COc1cccc2c1-c1ccc3c(c1C(C(N)=O)O2)C(C)=CC(C)(C)N3 (centres undefined)
- pKi (Glucocorticoid receptor [1]): < 5.30
- pEC50 (Glucocorticoid receptor [2]): < 5.30
- pEC50 (Glucocorticoid receptor [3]): < 5.30
- pKi (Progesterone receptor): < 5.30

SMILES: COc1cccc2c1-c1ccc3c(c1C(Cc1ccccc1)O2)C(C)=CC(C)(C)N3 (centres undefined)
- pKi (Progesterone receptor): < 5.30

SMILES: COc1cccc2c1-c1ccc3c(c1C(c1cccc(OCSC)c1)O2)C(C)=CC(C)(C)N3 (centres undefined)
- pEC50 (Glucocorticoid receptor [2]): 8.40
- pEC50 (Glucocorticoid receptor [3]): 8.05
- pKi (Progesterone receptor): < 5.30

SMILES: C=CCC1Oc2cccc(OC)c2-c2ccc3c(c21)C(C)=CC(C)(C)N3 (racemic) [AL-43]
- pKi (Glucocorticoid receptor [1]): 8.60
- pEC50 (Glucocorticoid receptor [2]): 7.89
- pEC50 (Glucocorticoid receptor [3]): 7.48
- pKi (Progesterone receptor): 5.74

SMILES: C=CCC1Oc2cccc(OC)c2-c2ccc3c(c21)C(C)=CC(C)(C)N3 (single isomer, unassigned; (-)) [AL-43]
- pEC50 (Glucocorticoid receptor [2]): 8.16
- pEC50 (Glucocorticoid receptor [3]): 7.85
- pKi (Progesterone receptor): 5.89

SMILES: C=CCC1Oc2cccc(OC)c2-c2ccc3c(c21)C(C)=CC(C)(C)N3 (stereo in doubt; 37) [AL-43]
- pKi (Glucocorticoid receptor [1]): 6.82
- pEC50 (Glucocorticoid receptor [2]): 6.35
- pEC50 (Glucocorticoid receptor [3]): 6.28
- pKi (Progesterone receptor): < 5.30
